Measured values: patent US20240254115A1 (ACONDICIONAMIENTO TARRASENSE, priority 2021, published 2024)

Assays:
human σ1 receptor = target: T1, human σ1 receptor (Homo sapiens, UniProt Q99720); test: Human σ1 receptor radioligand assay; details: transfected HEK-293 membranes, 5 nM [3H](+)-pentazocine, 37° C. 120 minutes; + may also stand for 1-50% inhibition at 1 or 10 μM; read-out: Binding σ-1 Ki
T1 construct: expressed in transfected cells; host or cells: HEK-293
Procedure, shortened: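 Ki was derived from five test concentrations, or % inhibition was measured at a single 1 or 10 μM dose, against 5 nM [3H](+)-pentazocine. Incubation was 120 min at 37° C in 50 mM Tris-HCl pH 8 with 7 μg HEK-293 membranes, and 10 μM haloperidol set non-specific binding. Bound radioactivity was counted after filtration.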

human σ2/TMEM97 receptor = target: T2, human σ2/TMEM97 receptor (Homo sapiens, UniProt Q5BJF2); test: Binding assay to human σ2/TMEM97 receptor; details: transfected HEK-293 membranes, 10 nM [3H]-DTG, 25° C. 120 minutes; + may also stand for 1-50% inhibition at 1 or 10 μM; read-out: Binding σ-2 Ki
T2 construct: expressed in transfected cells; host or cells: HEK-293
Procedure, shortened: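 Membranes from transfected HEK-293 cells (15 µg) were incubated with 10 nM [3H]-DTG in 50 mM Tris-HCl pH 8.0 for 120 min at 25 °C, with 10 µM haloperidol defining non-specific binding. Filtration and scintillation counting followed. Compounds tested as % inhibition at 1 or 10 µM, or at five concentrations for Ki.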

T1 sequence (Q99720 whole entry): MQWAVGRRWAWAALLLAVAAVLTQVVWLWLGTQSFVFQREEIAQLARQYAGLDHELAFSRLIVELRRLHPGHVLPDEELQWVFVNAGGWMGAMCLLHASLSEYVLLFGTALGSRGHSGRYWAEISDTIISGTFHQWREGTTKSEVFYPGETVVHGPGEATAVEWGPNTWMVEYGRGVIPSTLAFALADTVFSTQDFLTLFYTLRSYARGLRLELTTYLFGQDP
T2 sequence (Q5BJF2 whole entry): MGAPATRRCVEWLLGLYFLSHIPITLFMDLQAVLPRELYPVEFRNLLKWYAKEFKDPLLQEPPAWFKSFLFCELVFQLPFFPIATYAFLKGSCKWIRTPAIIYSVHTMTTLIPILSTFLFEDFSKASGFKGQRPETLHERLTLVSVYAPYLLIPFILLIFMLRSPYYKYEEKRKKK

Structure (SMILES)	Ki (human σ1 receptor) [nM]	Ki (human σ2/TMEM97 receptor) [nM]
CC(C)(C)CCN1CCCC2(CCN(S(=O)(=O)c3ccc(N4CCOC4=O)cn3)CC2)C1 [Example 154, 3-(6-((2-(3,3-Dimethylbutyl)-2,9-diazaspiro[5.5]undecan-9-yl)sulfonyl)pyridin-3-yl)oxazolidin-2-one]	< 100	< 100
O=C1OCCN1c1ccc(S(=O)(=O)N2CCCC3(CCN(Cc4ccccc4)CC3)C2)cn1 [Example 155, 3-(5-((9-Benzyl-2,9-diazaspiro[5.5]undecan-2-yl)sulfonyl)pyridin-2-yl)oxazolidin-2-one]	< 100	< 100
O=C1OCCN1c1ccc(S(=O)(=O)N2CCC3(CCN(Cc4cc(F)ccc4F)CC3)CC2)cn1 [Example 156, 3-(5-((9-(2,5-Difluorobenzyl)-3,9-diazaspiro[5.5]undecan-yl)sulfonyl)pyridin-2-yl)oxazolidin-3-2-one]	> 1000	< 100
N#Cc1cc(CN2CCC3(CC2)CCN(S(=O)(=O)c2ccc(N4CCOC4=O)nc2)CC3)ccc1F [Example 157, 2-Fluoro-5-((9-((6-(2-oxooxazolidin-3-yl)pyridin-3-yl)sulfonyl)-3,9-diazaspiro[5.5]undecan-3-yl)methyl)benzonitrile]	> 1000	< 100
O=C1OCCN1c1ccc(S(=O)(=O)N2CCCC3(CCN(CC4CCOCC4)CC3)C2)cn1 [Example 158, 3-(5-((9-((Tetrahydro-2H-pyran-4-yl)methyl)-2,9-diazaspiro[5.5]undecan-2-yl)sulfonyl)pyridin-2-yl)oxazolidin-2-one]	< 100	< 100
O=C1OCCN1c1ccc(S(=O)(=O)N2CCCC3(CCN(Cc4ccccc4F)CC3)C2)cn1 [Example 159, 3-(5-((9-(2-Fluorobenzyl)-2,9-diazaspiro[5.5]undecan-2-yl)sulfonyl)pyridin-2-yl)oxazolidin-2-one]	< 100	< 100
O=C1OCCN1c1ccc(S(=O)(=O)N2CCCC3(CCN(Cc4cc(F)ccc4F)CC3)C2)cn1 [Example 160, 3-(5-((9-(2,5-Difluorobenzyl)-2,9-diazaspiro[5.5]undecan-2-yl)sulfonyl)pyridin-2-yl)oxazolidin-2-one]	< 100	< 100
N#Cc1cc(CN2CCC3(CCCN(S(=O)(=O)c4ccc(N5CCOC5=O)nc4)C3)CC2)ccc1F [Example 161, 2-Fluoro-5-((2-((6-(2-oxooxazolidin-3-yl)pyridin-3-yl)sulfonyl)-2,9-diazaspiro[5.5]undecan-9-yl)methyl)benzonitrile]	< 100	< 100
O=C1OCCN1c1ccc(S(=O)(=O)N2CCC3(CCN(Cc4cc(F)ccc4F)CC3)C2)cn1 [Example 162, 3-(5-((8-(2,5-Difluorobenzyl)-2,8-diazaspiro[4.5]decan-2-yl)sulfonyl)pyridin-2-yl)oxazolidin-2-one]	> 1000	< 100
O=C1OCCN1c1ccc(S(=O)(=O)N2CCC3(CCN(Cc4ccccc4F)CC3)C2)cn1 [Example 163, 3-(5-((8-(2-Fluorobenzyl)-2,8-diazaspiro[4.5]decan-2-yl)sulfonyl)pyridin-2-yl)oxazolidin-2-one]	100 to 500	100 to 500
N#Cc1ccc(CN2CCC3(CC2)CCN(S(=O)(=O)c2ccc(N4CCOC4=O)nc2)C3)cc1F [Example 164, 2-Fluoro-4-((2-((6-(2-oxooxazolidin-3-yl)pyridin-3-yl)sulfonyl)-2,8-diazaspiro[4.5]decan-8-yl)methyl)benzonitrile]	100 to 500	100 to 500
N#Cc1cc(CN2CCC3(CC2)CCN(S(=O)(=O)c2ccc(N4CCOC4=O)nc2)C3)ccc1F [Example 165, 2-Fluoro-5-((2-((6-(2-oxooxazolidin-3-yl)pyridin-3-yl)sulfonyl)-2,8-diazaspiro[4.5]decan-8-yl)methyl)benzonitrile]	> 1000	100 to 500
O=C1OCCN1c1ccc(S(=O)(=O)N2CCC3(CCN(Cc4ccccc4F)CC3)CC2)cn1 [Example 166, 3-(5-((9-(2-Fluorobenzyl)-3,9-diazaspiro[5.5]undecan-3-yl)sulfonyl)pyridin-2-yl)oxazolidin-2-one]	500 to 1000	< 100
CN(Cc1ccccc1)[C@H]1CC[C@H](NS(=O)(=O)c2ccc(N3CCOC3=O)nc2)CC1 [Example 167, N-((1 r,4r)-4-(Benzyl(methyl)amino)cyclohexyl)-6-(2-oxooxazolidin-3-yl)pyridine-3-sulfonamide]	> 1000	100 to 500
CN(CCC(C)(C)C)C1CCN(S(=O)(=O)c2ccc(N3CCC(F)(F)CC3)nc2)CC1 [Example 168, 1-((6-(4,4-Difluoropiperidin-1-yl)pyridin-3-yl)sulfonyl)-N-(3,3-dimethylbutyl)-N-methylpiperidin-4-amine]	< 100	< 100
CN(CC1CCOCC1)C1CCN(S(=O)(=O)c2ccc(N3CCC(F)(F)CC3)nc2)CC1 [Example 169, 1-((6-(4,4-Difluoropiperidin-1-yl)pyridin-3-yl)sulfonyl)-N-methyl-N-((tetrahydro-2H-pyran-4-yl)methyl)piperidin-4-amine]	100 to 500	< 100
O=S(=O)(c1ccc(N2CCC(F)(F)CC2)nc1)N1CCC(NCc2ccccc2)CC1 [Example 170]	> 1000	< 100
CN(Cc1ccc(C#N)cc1F)C1CCN(S(=O)(=O)c2ccc(N3CCC(F)(F)CC3)nc2)CC1 [Example 171, 4-(((1-((6-(4,4-Difluoropiperidin-1-yl)pyridin-3-yl)sulfonyl)piperidin-4-yl)(methyl)amino)methyl)-3-fluorobenzonitrile]	> 1000	< 100
CN(Cc1ccccc1F)C1CCN(S(=O)(=O)c2ccc(N3CCC(F)(F)CC3)nc2)CC1 [Example 172, 1-((6-(4,4-Difluoropiperidin-1-yl)pyridin-3-yl)sulfonyl)-N-(2-fluorobenzyl)-N-methylpiperidin-4-amine]	< 100	< 100
CN(Cc1ccc(C#N)c(F)c1)C1CCN(S(=O)(=O)c2ccc(N3CCC(F)(F)CC3)nc2)CC1 [Example 173, 4-(((1-((6-(4,4-Difluoropiperidin-1-yl)pyridin-3-yl)sulfonyl)piperidin-4-yl)(methyl)amino)methyl)-2-fluorobenzonitrile]	> 1000	< 100
CN(Cc1cc(F)ccc1F)C1CCN(S(=O)(=O)c2ccc(N3CCC(F)(F)CC3)nc2)CC1 [Example 174, N-(2,5-Difluorobenzyl)-1-((6-(4,4-difluoropiperidin-1-yl)pyridin-3-yl)sulfonyl)-N-methylpiperidin-4-amine]	100 to 500	100 to 500
CN(Cc1ccccc1)[C@H]1CC[C@H](NS(=O)(=O)c2ccc(N3CCC(F)(F)CC3)nc2)CC1 [Example 175, N-((1r,4r)-4-(Benzyl(methyl)amino)cyclohexyl)-6-(4,4-difluoropiperidin-1-yl)pyridine-3-sulfonamide]	100 to 500	< 100
CN(Cc1ccccc1)[C@H]1CC[C@H](NS(=O)(=O)c2ccc(N3CCC4(CCCO4)CC3)nc2)CC1 [Example 176, N-((1r,4r)-4-(Benzyl(meth-yl)amino)cyclohexyl)-6-(1-oxa-8-azaspiro[4.5]decan-8-yl)pyridine-3-sulfonamide]	> 1000	< 100
CN(CC1CCOCC1)[C@H]1CC[C@H](NS(=O)(=O)c2ccc(N3CCC4(CCCO4)CC3)nc2)CC1 [Example 177, N-((1r,4r)-4-(Methyl((tetrahydro-2H-pyran-4-yl)methyl)amino)cyclohexyl)-6-(1-oxa-8-azaspiro[4.5]decan-8-yl)pyridine-3-sulfonamide]	> 1000	< 100
CN(Cc1ccccc1F)[C@H]1CC[C@H](NS(=O)(=O)c2ccc(N3CCC4(CCCO4)CC3)nc2)CC1 [Example 178, N-((1r,4r)-4-((2-Fluorobenz-yl)(methyl)amino)cyclohexyl)-6-(1-oxa-8-azaspiro[4.5]decan-8-yl)pyridine-3-sulfonamide]	> 1000	< 100
CN(Cc1cc(F)ccc1F)[C@H]1CC[C@H](NS(=O)(=O)c2ccc(N3CCC4(CCOC4)CC3)nc2)CC1 [Example 179, N-((1r,4r)-4-((2,5-Difluoro-benzyl)(methyl)amino)cyclohexyl)-6-(2-oxa-8-azaspiro[4.5]decan-8-yl)pyridine-3-sulfonamide]	> 1000	< 100
CN(Cc1ccc(F)c(F)c1)[C@H]1CC[C@H](NS(=O)(=O)c2ccc(N3CCC4(CCOC4)CC3)nc2)CC1 [Example 180, N-((1r,4r)-4-((3,4-Difluoro-benzyl)(methyl)amino)cyclohexyl)-6-(2-oxa-8-azaspiro[4.5]decan-8-yl)pyridine-3-sulfonamide]	> 1000	< 100
CN(CCC(C)(C)C)[C@H]1CC[C@H](NS(=O)(=O)c2ccc(N3CCC4(CCOC4)CC3)nc2)CC1 [Example 181, N-((1r,4r)-4-((3,3-Dimethylbut-yl)(methyl)amino)cyclohexyl)-6-(2-oxa-8-azaspiro[4.5]decan-8-yl)pyridine-3-sulfonamide]	500 to 1000	< 100
CN(CC(C)(C)C)[C@H]1CC[C@H](NS(=O)(=O)c2ccc(N3CCC4(CCOC4)CC3)nc2)CC1 [Example 182, N-((1r,4r)-4-(Methyl(neopentyl)a-mino)cyclohexyl)-6-(2-oxa-8-azaspiro[4.5]decan-8-yl)pyridine-3-sulfonamide]	> 1000	500 to 1000
